{"source": "paper PMC9550195", "about": "“GSK3β-dependent lysosome biogenesis: An effective pathway to mitigate renal fibrosis with LM49” (Frontiers in Pharmacology, 2022)", "target": "T1, GSK3β (Homo sapiens, UniProt P49841)", "T1 construct": "gene GSK3B", "T1 sequence (P49841 whole entry)": "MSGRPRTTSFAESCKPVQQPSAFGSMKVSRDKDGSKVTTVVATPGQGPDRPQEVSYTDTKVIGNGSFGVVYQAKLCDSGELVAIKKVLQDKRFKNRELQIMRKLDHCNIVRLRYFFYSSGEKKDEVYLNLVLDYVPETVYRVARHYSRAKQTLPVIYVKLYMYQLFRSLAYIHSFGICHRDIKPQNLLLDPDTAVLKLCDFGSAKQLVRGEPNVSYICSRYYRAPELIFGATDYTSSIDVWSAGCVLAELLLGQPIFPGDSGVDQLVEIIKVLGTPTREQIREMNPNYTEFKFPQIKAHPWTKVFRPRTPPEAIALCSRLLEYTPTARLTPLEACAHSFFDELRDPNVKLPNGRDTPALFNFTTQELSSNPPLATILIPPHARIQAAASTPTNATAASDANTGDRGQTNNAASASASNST", "experiment": "BLI with immobilised biotinylated recombinant GSK-3β; supported by mobility shift kinase assay (IC50 […]), Lineweaver-Burk, CETSA, DARTS", "format": "binding", "data": [{"compound": "O=C(c1cc(Br)ccc1O)c1cc(O)c(O)cc1Br", "note": "[LM49, 5,2′-dibromo-2,4′,5′-trihydroxydiphenylmethanone]", "values": [{"measurement": "Kd", "value": 122, "unit": "µM"}]}]}
